Experiment [1] concerns R-1 cells (Rhabdomyosarcoma Cells). In words: R-1 activity (bioliquid assay), cytotoxicity. To be noted: for IC50: Rhabdomyosarcoma cell. Type of experiment: cell-based. The source says: The indoloquinones II (formula II) have been tested in respect of their cytotoxic activity against L1210 cells and R-1 cells (Rhabdomyosarcoma Cells) in a bioliquid assay at the department of oncology of the Free University of Amsterdam (Table I). […] (Table II). Eight indoloquinones (E.O. 1, E.O. 2, E.O. 4, E.O. 4A, E.O. 8, E.O. 9, E.O. 33 and E.O. 35) have been tested in a panel of five human tumour lines (TNO Rijswijk; Table III).
For the determination of the R-1 activity, Rhabdomyosarcoma cells were brought into Falcon multiwells (growth area: 9.6 cm^2) (~10^6 cells per dish) containing 3 ml of Dulbecco's medium supplemented with 10% Foeto Calf Serum (FCS). […] Thereupon the drug solution was removed and the cells were covered with fresh medium. After 48 hours the cells were trypsinized and counted on a Sysmex microcell counter (CC110).
(§1) The in vitro L1210 and R-1 activities of the indoloquinones (formula III), were also determined in the bioliquid assays as described above.

The next experiment deals with L1210 cells. In words: L1210 activity (bioliquid assay), cytotoxicity. It is filed as cell-based. The conditions noted are these: for IC50: Mus musculus; for ID-50 L1210: 2880 min.
From the text: The indoloquinones II (formula II) have been tested in respect of their cytotoxic activity against L1210 cells and R-1 cells (Rhabdomyosarcoma Cells) in a bioliquid assay at the department of oncology of the Free University of Amsterdam (Table I). In addition to this seven compounds (E.O. 1, E.O. 2, E.O. 4, E.O. 7, E.O. 9, E.O. 16 and E.O. 17) have been tested on L1210 activity in a clonogenic assay at TNO, Rijswijk. Further, the lowest active doses of the compounds E.O. 1, E.O. 2, E.O. 4 and E.O. 9 have been determined at TNO Rijswijk, according to the method described by Lamberts et al. [Oncology, 40, 301 (1983)]. (Table II). Eight indoloquinones (E.O. 1, E.O. 2, E.O. 4, E.O. 4A, E.O. 8, E.O. 9, E.O. 33 and E.O. 35) have been tested in a panel of five human tumour lines (TNO Rijswijk; Table III). From the latter group three indoloquinones (E.O. 1, E.O. 4 and E.O. 9) have been selected for a cytotoxicity study, involving five slowly growing human tumour lines (University of Freiburg; Table IV).
For this purpose, L1210 cells were grown, as suspension, in Falcon multi-wells (growth area: 9.6 cm^2) using RPMI supplemented with 15% FCS and 2-mercapto-ethanol (60 μmol) as medium. In this medium, the cells were continuously incubated with the compound to be tested at 37° C. in an atmosphere of 5% CO2 in humidified air for 48 hours. Thereupon they were counted on a Sysmex microcell counter (CC110).
as §1

[2] abbreviates: Table IA, para-indoloquinone diesters, read-out: ID-50 R-1.
Where [3] appears, read: L1210, 48 h, Table IA, para-indoloquinone diesters, read-out: ID-50 L1210.
[4] abbreviates: Table I, bioliquid assay, read-out: ID-50 R-1.
[5] abbreviates: L1210, Table I, bioliquid assay, 48 hours, read-out: ID-50 L1210.
The mark [6] stands for this setting: read-out: ID-50 R-1, Table VIII.
Setting [7] is: L1210, 48 h, read-out: ID-50 L1210, Table VIII.

Values after ≈ are worked out from the molar mass of the structure shown. Like-named read-outs stand apart in the source and are kept apart here. Some results are limits rather than exact numbers.

Here are results for 23 compounds from US5079257A, “Indoloquinone compounds” (priority 1986, dated 1992).

Consider `COC(=O)/C=C/c1c(C(=O)OC)c2c(n1C)C(=O)C(C)=C(OC)C2=O` [E.O. 32, Methyl 1,6-dimethyl-5-methoxy-3-methoxycarbonyl-2-[1H-indole-4,7-dione]acrylate], for which the figures for the IC50 (in experiment [1] (setting [2]); with L1210 cells (setting [3])) were more than 10 µg/mL and 3.5 µg/mL (≈ 10.1 µM), respectively.
`CC(=O)OCc1c2c(n(C)c1/C=C/CO)C(=O)C=C(NCCN(C)C)C2=O` [E.O. 48, 3-Acetoxymethyl-5-[2-(N,N-dimethylamino)ethyl-1-amino]-1-methyl-2-[1H-indole-4,7-dione]prop-β-en-α-ol]: the IC50 was more than 10 µg/mL in experiment [1] (setting [4]); more than 10 µg/mL in experiment [1] (Table VI, read-out: ID-50 R-1); more than 10 µg/mL with L1210 cells (setting [5]). In the experiment on L1210 cells (Table VI), the “ID-50 L1210” value was more than 10 µg/mL.
For `CC(=O)OC/C=C/c1c(COC(C)=O)c2c(n1C)C(=O)C=C(NCCc1ccccn1)C2=O` [E.O. 52, 3-Acetoxymethyl-1-methyl-5-[2-pyridylethyl-1-amino]-2-[1H-indole-4,7-dione]prop-β-en-α-yl acetate], the “R-1 activity” value in experiment [1] is “rather high activities”. Further, the IC50 was 3.3 µg/mL in experiment [1] (setting [4]) and more than 10 µg/mL in the experiment on L1210 cells (setting [5]). In addition, the “ID-50 L1210” value in the experiment with L1210 cells (Table VI) was more than 10 µg/mL.
For `COCc1c2c(n(C)c1/C=C/COC(=O)NCCCl)C(=O)C=C(OC)C2=O` [E.O. 10, 5-Methoxy-3-methoxymethyl-1-methyl-2-[1H-indole-4,7-dione]prop-β-en-α-yl N-[2-chloro-1-ethyl]carbamate], the IC50 (in experiment [1] (setting [4]); in the experiment on L1210 cells (setting [5])) was more than 10 µg/mL throughout. Further, in experiment [1] (Table VII), the “ID-50 R-1” value was more than 10 µg/mL. For the same compound, the “ID-50 L1210” value in the experiment with L1210 cells (Table VII) is more than 10 µg/mL.
On to `CCNC1=CC(=O)c2c(c(C(=O)OC)c(/C=C/C(=O)OC)n2C)C1=O` [E.O. 57, Methyl 5-ethylamino-3-methoxycarbonyl-1-methyl-2-[1H-indole-4,7-dione]acrylate], for which the IC50 in experiment [1] (setting [2]) amounted to 3.2 µg/mL (≈ 9.24 µM); in the experiment on L1210 cells (setting [3]), 1.4 µg/mL (≈ 4.04 µM).
`CC(=O)OC/C=C/c1c(COC(C)=O)c2c(n1C)C(=O)C=C(N1CCOCC1)C2=O` [E.O. 60, 3-Acetoxymethyl-1-methyl-5-morpholino-2-[1H-indole-4,7-dione]prop-β-en-α-yl acetate]: the IC50 was 3.3 µg/mL in experiment [1] (setting [4]) and more than 10 µg/mL in the experiment on L1210 cells (setting [5]). Moreover, the “ID-50 L1210” value in the experiment on L1210 cells (Table VI) is more than 10 µg/mL.
In the case of `COC1=CC(=O)c2c(c(CO)c(/C=C/COC(C)=O)n2C)C1=O` [E.O. 1A, 3-Hydroxymethyl-5-methoxy-1-methyl-2-[1H-indole-4,7-dione]prop-β-en-α-yl acetate], the figures for the IC50 (in experiment [1] (setting [4]); in the experiment on L1210 cells (setting [5])) were 3.2 µg/mL and 2.8 µg/mL, respectively.
On the same counts, the results for `CCNC1=CC(=O)c2c(c(COC(C)=O)c(/C=C/CO)n2C)C1=O` [E.O. 59, 3-Acetoxymethyl-5-ethylamino-1-methyl-2-[1H-indole-4,7-dione]prop-β-en-α-ol] are more than 10 µg/mL and more than 10 µg/mL.
On to `COC1=CC(=O)c2c(c(COC(C)=O)c(/C=C/CO)n2C)C1=O` [E.O. 1B, 3-Acetoxymethyl-5-methoxy-1-methyl-2-[1H-indole-4,7-dione]prop-β-en-α-ol], for which the figures for the IC50 (in experiment [1] (setting [4]); in the experiment on L1210 cells (setting [5])) were 0.05 µg/mL (≈ 0.157 µM) and 0.9 µg/mL (≈ 2.82 µM), respectively.
Turning to `CCCCNC(=O)OC/C=C/c1c(COC(=O)NCCCC)c2c(n1C)C(=O)C=C(OC)C2=O` [E.O. 37, 3-[N-butylcarbamoyloxymethyl]-5-methoxy-1-methyl-2-[1H-indole-4,7-dione]prop-β-en-α-yl N-butylcarbamate], the figures for the IC50 (in experiment [1] (setting [4]); with L1210 cells (setting [5])) were 6.5 µg/mL (≈ 13.7 µM) and more than 10 µg/mL, respectively. Also, the “ID-50 L1210” value with L1210 cells (Table VII) was more than 10 µg/mL.
As for `COC1=C(C)C(=O)c2c(c(CO)c(/C=C/CO)n2C)C1=O` [E.O. 18, 1,6-Dimethyl-5-hydroxymethyl-5-methoxy-2-[1H-indole-4,7-dione]prop-β-en-α-ol], the IC50 in experiment [1] (setting [4]) was 2.2 µg/mL (≈ 7.55 µM); in the experiment on L1210 cells (setting [5]) it was 2.4 µg/mL (≈ 8.24 µM).
In the case of `CC(=O)OCc1c2c(n(C)c1/C=C/CO)C(=O)C=C(NCCc1ccccn1)C2=O` [E.O. 62, 3-Acetoxymethyl-1-methyl-5-[2-pyridylethyl-1-amino]-2-[1H-indole-4,7-dione]prop-β-en-α-ol], the IC50 in experiment [1] (setting [4]) was more than 10 µg/mL; in experiment [1] (Table VI, read-out: ID-50 R-1), more than 10 µg/mL; in the experiment with L1210 cells (setting [5]), more than 10 µg/mL. The “ID-50 L1210” value with L1210 cells (Table VI) was more than 10 µg/mL.
Take `CC(=O)OC/C=C/c1c(COC(C)=O)c2c(n1C)C(=O)C=C(N1CC1C)C2=O` (stereo not drawn) [E.O. 53, 3-Acetoxymethyl-1-methyl-5-propyleneamino-2-[1H-indole-4,7-dione]prop-β-en-α-yl acetate]: the IC50 was determined as 1.4 µg/mL in experiment [1] (setting [6]) and 3.4 µg/mL with L1210 cells (setting [7]).
As to `CC1=C(N2CC2)C(=O)c2c(CO)c(/C=C/CO)n(C)c2C1=O` [E.O. 19, 5-Aziridino-1,6-dimethyl-3-hydroxymethyl-2-[1H-indole-4,7-dione]prop-β-en-α-ol], the IC50 in experiment [1] (read-out: ID-50 R-1, Table I, bioliquid assay) turned out to be 0.1 µg/mL (≈ 0.331 µM); in experiment [1] (setting [6]), 0.12 µg/mL (≈ 0.397 µM); with L1210 cells (setting [7]), 2 µg/mL (≈ 6.62 µM).
`COC1=CC(=O)c2c(c(COC(N)=O)c(/C=C/COC(N)=O)n2C)C1=O` [E.O. 3, 3-Carbamoyloxymethyl-5-methoxy-1-methyl-2-[1H-indole-4,7-dione]prop-β-en-α-yl carbamate]: the IC50 was more than 10 µg/mL in experiment [1] (setting [4]) and 8 µg/mL (≈ 22 µM) in the experiment on L1210 cells (setting [5]).
For `CCNC1=CC(=O)c2c(c(COC(C)=O)c(/C=C/COC(C)=O)n2C)C1=O` [E.O. 58, 3-Acetoxymethyl-5-ethylamino-1-methyl-2-[1H-indole-4,7-dione]prop-β-en-α-yl acetate], the IC50 is more than 10 µg/mL in experiment [1] (setting [4]); more than 10 µg/mL in experiment [1] (Table VI, read-out: ID-50 R-1); more than 10 µg/mL in the experiment with L1210 cells (setting [5]). Also, the “ID-50 L1210” value in the experiment with L1210 cells (Table VI) is more than 10 µg/mL.
On to `Cn1c(/C=C/CO)c(CO)c2c1C(=O)C=C(Nc1ccccc1)C2=O` [E.O. 15, 3-Hydroxymethyl-5-phenylamino-1-methyl-2-[1H-indole-4,7-dione]prop-β-en-α-ol], for which the IC50 in the experiment with L1210 cells (setting [5]) amounted to 0.7 µg/mL (≈ 2.07 µM).
With `COC1=CC(=O)c2c(c(COC(=O)NCCCl)c(/C=C/COC(=O)NCCCl)n2C)C1=O` [E.O. 13, 3-(N-chloroethylcarbamoyloxymethyl)-5-methoxy-1-methyl-2-[1H-indole-4,74,7-dione]prop-β-en-α-yl N-chloroethyl carbamate], the IC50 in experiment [1] (setting [4]) was found to be 1.1 µg/mL (≈ 2.25 µM); with L1210 cells (setting [5]), 10 µg/mL (≈ 20.5 µM).
On to `CC(=O)OC/C=C/c1c(COC(C)=O)c2c(n1C)C(=O)C=C(NCCN(C)C)C2=O` [E.O. 47, 3-Acetoxymethyl-5-[2-(N,N-dimethylamino)ethyl-1-amino]-1-methyl-2-[1H-indole-4,7-dione]prop-β-en-α-yl acetate], for which the “R-1 activity” value in experiment [1] was “rather high activities”. Further, the IC50 in experiment [1] (setting [4]) was 4.4 µg/mL; in the experiment with L1210 cells (setting [5]), more than 10 µg/mL. Besides, the “ID-50 L1210” value in the experiment on L1210 cells (Table VI) was more than 10 µg/mL.
On to `CCNC1=CC(=O)c2c(c(CO)c(/C=C/CO)n2C)C1=O` [E.O. 56, 5-Ethylamino-3-hydroxymethyl-1-methyl-2-[1H-indole-4,7-dione]prop-β-en-α-ol], for which the IC50 in experiment [1] (setting [4]) is more than 10 µg/mL; in experiment [1] (Table VI, read-out: ID-50 R-1), more than 10 µg/mL; in the experiment on L1210 cells (setting [5]), 5.1 µg/mL (≈ 17.6 µM).
For the compound `COC1=CC(=O)c2c(c(CNc3ccccc3)c(/C=C/COC(C)=O)n2C)C1=O` [E.O. 39, 5-Methoxy-1-methyl-3-(N-phenylaminomethyl)-2-[1H-indole-4,7-dione]prop-β-en-α-yl acetate], the “R-1 activity” value in experiment [1] is reported as “rather high R-1 activity”. Besides, the IC50 in experiment [1] (setting [4]) stood at 1 µg/mL; in the experiment with L1210 cells (setting [5]), 10 µg/mL.
In the case of `Cn1c(/C=C/CO)c(CO)c2c1C(=O)C=C(NCCc1ccccn1)C2=O` [E.O. 51, 3-Hydroxymethyl-1-methyl-5-[2-pyridylethyl-1-amino]-2-[1H-indole-4,7-dione]prop-β-en-α-ol], the IC50 was 4.5 µg/mL (≈ 12.2 µM) in experiment [1] (setting [4]) and more than 10 µg/mL in the experiment on L1210 cells (setting [5]). Also, the “ID-50 L1210” value in the experiment with L1210 cells (Table VI) was more than 10 µg/mL.
Turning to `COC1=CC(=O)c2c(c(C)c(/C=C/COC(C)=O)n2C)C1=O` [E.O. 41, 5-Methoxy-1,3-dimethyl-2-[1H-indole-4,7-dione]prop-β-en-α-yl acetate], the IC50 is more than 10 µg/mL in experiment [1] (setting [4]); more than 10 µg/mL in experiment [1] (Table VII, read-out: ID-50 R-1); more than 10 µg/mL with L1210 cells (setting [5]). Further, in the experiment with L1210 cells (Table VII), the “ID-50 L1210” value was more than 10 µg/mL.
